Results on two compounds are retold here after paper PMC8041433 (Environmental Health Perspectives, 2021).

Where “and” joins values, the source holds several entries; their conditions need not be identical. Equal values may be shown once. Where a name gives a salt, the structure may show the parent alone. Read-outs that look alike come from different tables or passages of the source.

In experiment [1] the target is AChE in SH-SY5Y spheroids (Homo sapiens, UniProt P22303). The experiment is described as follows: cell-based. As to conditions: potency (IC50).
Chain of AChE in SH-SY5Y spheroids (P22303 32-614): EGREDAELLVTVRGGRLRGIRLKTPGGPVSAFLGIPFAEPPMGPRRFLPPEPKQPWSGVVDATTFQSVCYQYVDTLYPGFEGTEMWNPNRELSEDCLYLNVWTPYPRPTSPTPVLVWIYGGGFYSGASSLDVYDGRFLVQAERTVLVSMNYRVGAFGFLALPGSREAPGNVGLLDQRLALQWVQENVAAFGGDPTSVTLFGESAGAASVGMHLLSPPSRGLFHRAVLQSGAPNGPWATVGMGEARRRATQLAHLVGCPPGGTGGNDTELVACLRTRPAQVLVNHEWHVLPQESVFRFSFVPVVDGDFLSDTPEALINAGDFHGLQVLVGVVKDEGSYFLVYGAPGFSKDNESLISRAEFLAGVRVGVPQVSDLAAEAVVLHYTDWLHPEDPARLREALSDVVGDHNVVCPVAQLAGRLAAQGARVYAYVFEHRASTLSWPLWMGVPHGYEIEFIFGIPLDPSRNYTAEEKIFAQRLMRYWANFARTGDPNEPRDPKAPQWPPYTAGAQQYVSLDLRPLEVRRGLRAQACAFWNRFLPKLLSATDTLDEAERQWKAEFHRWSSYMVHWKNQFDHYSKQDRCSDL
Experiment [2] concerns the target AChE in neural stem cell spheroids (Homo sapiens, UniProt P22303). The experiment is described as follows: cell-based. The note with it: potency (IC50).
The target in experiment [3] is T1, recombinant human AChE (Homo sapiens, UniProt P22303). Description: biochemical. The note with it: for AC50: AC50 (uM). The class given is biochemical.
T1 sequence (P22303 32-614): as above
Experiment [4] has as its target AChE in neural stem cells (Homo sapiens, UniProt P22303). Description: cell-based.
Experiment [5] has as its target T1, recombinant human AChE. The experiment is described as follows: biochemical.
In experiment [6] the target is T1, recombinant human AChE. Description: biochemical. As to conditions: for IC50: potency (IC50), Enzyme.
Experiment [7] addresses T1, recombinant human AChE. The experiment is described as follows: biochemical. As to conditions: potency (IC50), Enzyme with microsomes.
In experiment [8] the target is T1, recombinant human AChE.
Experiment [9] addresses AChE in SH-SY5Y cells (Homo sapiens, UniProt P22303). The experiment is described as follows: cell-based.
Where [10] appears, read: Neural stem cell spheroid (24 h).
Where [11] appears, read: Neural stem cell spheroid (48 h).
[12] abbreviates: potency (IC50), SH-SY5Y cells monolayer.
For IR or R in this document: key: Reversible (R); Irreversible (IR); ND, not detected in enzyme-based AChE inhibition assay from current study.

Chain of AChE in SH-SY5Y cells (P22303 32-614): as above
Chain of AChE in neural stem cell spheroids (P22303 32-614): as above
Chain of AChE in neural stem cells (P22303 32-614): as above

For orientation: IC50 means the concentration needed to halve the response being measured. The term AC50 denotes the midpoint of the concentration-response curve, whichever way the signal moves. Turning to `Cc1c(Cl)c(=O)oc2cc(OP(=O)(OCCCl)OCCCl)ccc12` [Haloxon], the 50% inhibitory concentration (IC50) in experiment [1] (SH-SY5Y spheroids (24 h)) came out at 880 ± 640 nM; in experiment [1] (SH-SY5Y spheroids (48 h)), 1120 ± 130 nM; in experiment [2] (setting [10]) it was 200 ± 170 nM; in experiment [2] (setting [11]), 180 ± 50 nM; in [4], 390 nM; in experiment [5] it was 1350 ± 90 nM. Also, the 50% inhibitory concentration (IC50) is 630 ± 110 nM in experiment [6]; 2810 ± 320 nM in experiment [7]; 3.89 µM and 4.36 µM and 3.09 µM in experiment [9] (IC50 (uM)); 1.51 ± 0.09 µM in experiment [9] (setting [12]). In addition, in experiment [3], the half-maximal activity concentration (AC50) is 1.4 µM and 1.57 µM (2×) and 1.11 µM (2×) and 1.25 µM and 885 nM and 993 nM. Besides, the “CC-v2 (curve classes)” value in experiment [6], in experiment [8] and in experiment [9] was -1.1 in each case. Besides, the Efficacy in experiment [6] is on record as -92.736; in experiment [8], -94.886.

As for `O=C(c1ccc(OCCN2CCCCC2)cc1)c1c(-c2ccc(O)cc2)sc2cc(O)ccc12` [Raloxifene hydrochloride, reference compound], the IC50 in experiment [1] (SH-SY5Y spheroids (24 h)) amounted to 1030 ± 780 nM; in experiment [1] (SH-SY5Y spheroids (48 h)), 4190 ± 940 nM; in experiment [2] (setting [10]), 6290 ± 720 nM; in experiment [2] (setting [11]), 9850 nM; in experiment [4], 14100 ± 1610 nM; in [5], 3430 ± 580 nM. Moreover, the IC50 in [6] is 2140 ± 130 nM; in [7], 3420 ± 580 nM; in experiment [9] (IC50 (uM)), 27.5 µM and 25.2 µM and 31.7 µM; in [9] (setting [12]), 4.29 ± 0.59 µM. In addition, in [3], the “IR or R” value was “R”. In addition, the AC50 in experiment [3] (activity_5) is 1.57 µM and 2.22 µM and 1.11 µM; in [3] (activity_10), 1.57 µM and 1.4 µM and 3.14 µM; in experiment [3] (activity_60), 1.25 µM and 1.11 µM and 2.22 µM. For the same compound, the “CC-v2 (curve classes)” value in experiment [6] was -1.1; in experiment [8] it was -1.1; in experiment [9] it was -1.1 and -2.1.
